Reference: PMC7468908 (Nutrients, 2020)
Read-outs that look alike come from different tables or passages of the source.

Assays:
OATP1B1 = molecular target: T1, OATP1B1 (Homo sapiens, UniProt Q9Y6L6); test: OATP1B1-mediated pyranine uptake in A431 cells overexpressing OATP1B1; assay type: cell-based
T1 construct: expressed in transfected cells; host or cells: A431
T1 sequence (Q9Y6L6 1-691): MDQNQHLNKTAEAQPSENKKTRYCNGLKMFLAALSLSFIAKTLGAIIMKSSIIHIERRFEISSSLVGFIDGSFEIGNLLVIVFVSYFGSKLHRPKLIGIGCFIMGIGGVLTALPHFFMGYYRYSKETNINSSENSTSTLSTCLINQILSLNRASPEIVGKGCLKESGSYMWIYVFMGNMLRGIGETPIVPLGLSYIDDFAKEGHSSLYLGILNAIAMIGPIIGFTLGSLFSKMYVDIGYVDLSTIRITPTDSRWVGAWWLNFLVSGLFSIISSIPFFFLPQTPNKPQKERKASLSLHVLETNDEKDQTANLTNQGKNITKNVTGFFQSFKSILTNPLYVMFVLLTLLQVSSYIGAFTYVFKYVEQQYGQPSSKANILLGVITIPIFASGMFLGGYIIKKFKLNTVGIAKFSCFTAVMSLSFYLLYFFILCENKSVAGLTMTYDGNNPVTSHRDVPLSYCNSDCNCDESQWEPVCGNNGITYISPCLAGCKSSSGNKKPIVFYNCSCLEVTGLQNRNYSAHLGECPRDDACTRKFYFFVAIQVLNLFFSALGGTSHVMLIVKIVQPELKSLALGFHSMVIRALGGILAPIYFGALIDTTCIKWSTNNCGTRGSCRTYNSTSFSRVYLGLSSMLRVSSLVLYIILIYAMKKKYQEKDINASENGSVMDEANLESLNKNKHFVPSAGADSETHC
Protocol: (§1) A431 cells overexpressing human OATPs, 1A2 (BC042452, HsCD00333163), 1B1 (Gene ID: AB026257), 1B3 (BC141525, HsCD00348132) or 2B1 (BC041095.1, HsCD00378878), or their mock transfected controls, were generated as previously described. Cells were cultured in Dulbecco’s Modified Eagle Medium (DMEM; Thermo Fischer Scientific, Waltham, MA, USA) supplemented with 10% fetal bovine serum, 2 mM L-glutamine, 100 units/mL penicillin and 100 µg/mL streptomycin, at 37 °C with 5% CO2.
The interaction between flavonoids and OATPs was investigated in an indirect assay employing the fluorescent dye substrates, pyranine and sulforhodamine 101 [51, 52]. Briefly, A431 cell overexpressing OATPs, 1A2, 1B1, 1B3 or 2B1, or their mock transfected controls, were seeded on 96-well plates in a density of 8x10^4 cells/well in 200 μL DMEM one day prior to the transport measurements. […] The reaction was started by the addition of 50 μL uptake buffer containing pyranine in a final concentration of 10 μM (OATP1B1) or 20 μM (OATP1B3 and OATP2B1), or 0.5 μM sulforhodamine 101 (OATP1A2). Thereafter, cells were incubated at 37°C for 15 min (OATP1B1 and OATP2B1), 10 min (OATP1A2), or 30 min (OATP1B3). The reactions were stopped by removing the supernatants, then the cells were washed three times with ice-cold PBS. Fluorescence (in 200 μL PBS/well) was determined employing an Enspire plate reader (Perkin Elmer, Waltham, MA) ex/em: 403/517 nm (pyranine) or 586/605 nm (sulforhodamine 101). OATP-dependent transport was calculated by extracting fluorescence measured in mock transfected cells. Transport activity was calculated based on the fluorescence signal in the absence (100%) of flavonoids. Experiments were repeated at least in three biological replicates. IC50 values were calculated by Hill1 fit, using the Origin Pro8.6 software ([…]).

OATP1B3 = molecular target: T2, OATP1B3 (Homo sapiens, UniProt Q9NPD5); test: OATP1B3-mediated pyranine uptake in A431 cells overexpressing OATP1B3; assay type: cell-based
T2 construct: host or cells: A431
T2 sequence (Q9NPD5 1-702): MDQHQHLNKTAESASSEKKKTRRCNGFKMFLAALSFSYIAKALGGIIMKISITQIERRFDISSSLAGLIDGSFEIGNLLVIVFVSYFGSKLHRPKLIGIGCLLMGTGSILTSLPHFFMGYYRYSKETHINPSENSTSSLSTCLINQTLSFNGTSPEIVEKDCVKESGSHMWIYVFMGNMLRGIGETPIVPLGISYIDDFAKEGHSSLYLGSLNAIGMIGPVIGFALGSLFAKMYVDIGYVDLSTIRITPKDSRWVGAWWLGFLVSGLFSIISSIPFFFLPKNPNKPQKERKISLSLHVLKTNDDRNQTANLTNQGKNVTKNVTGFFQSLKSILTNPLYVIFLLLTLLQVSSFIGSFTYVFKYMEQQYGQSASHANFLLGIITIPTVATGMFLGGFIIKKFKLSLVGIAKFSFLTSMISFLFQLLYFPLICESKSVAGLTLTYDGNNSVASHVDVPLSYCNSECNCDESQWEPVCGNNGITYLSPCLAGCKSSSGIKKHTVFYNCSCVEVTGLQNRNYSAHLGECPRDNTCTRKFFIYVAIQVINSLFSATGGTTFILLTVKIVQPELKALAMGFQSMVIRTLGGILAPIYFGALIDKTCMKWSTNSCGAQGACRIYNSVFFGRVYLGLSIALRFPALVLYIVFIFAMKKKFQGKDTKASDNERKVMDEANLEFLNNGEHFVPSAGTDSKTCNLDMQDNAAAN
Protocol: as §1
Briefly, A431 cell overexpressing OATPs, 1A2, 1B1, 1B3 or 2B1, or their mock transfected controls, were seeded on 96-well plates in a density of 8x10^4 cells/well in 200 μL DMEM one day prior to the transport measurements. […] Thereafter, cells were incubated at 37°C for 15 min (OATP1B1 and OATP2B1), 10 min (OATP1A2), or 30 min (OATP1B3). The reactions were stopped by removing the supernatants, then the cells were washed three times with ice-cold PBS. […] OATP-dependent transport was calculated by extracting fluorescence measured in mock transfected cells. Transport activity was calculated based on the fluorescence signal in the absence (100%) of flavonoids. Experiments were repeated at least in three biological replicates. IC50 values were calculated by Hill1 fit, using the Origin Pro8.6 software ([…]).

[1] = 10 μM pyranine, 15 min, A431-OATP1B1 cells, read-out: IC50 for OATP1B1
[2] = 20 μM pyranine, 30 min, A431-OATP1B3 cells, read-out: IC50 for OATP1B3

concentration causing statistically significant (p < 0.01) inhibition, OATP1B1 (OATP1B1; 10 μM pyranine, 15 min) [nM]	IC50 (OATP1B1; [1]) [µM]	concentration causing statistically significant (p < 0.01) inhibition, OATP1B3 (OATP1B3; 20 μM pyranine, 30 min) [nM]	IC50 (OATP1B3; [2]) [µM]	Structure (SMILES)	IC50 (OATP1B1) [µM]	IC50 (OATP1B3) [µM]
1600	5.63	6300	9.62	COc1cc(-c2oc3cc(O)cc(O)c3c(=O)c2OC2OC(C(=O)O)C(O)C(O)C2O)ccc1O (centres unmarked) [I3G, isorhamnetin-3-glucuronide]		
300	0.33	1300	2.5	O=c1c(O)c(-c2ccc(O)c(OS(=O)(=O)O)c2)oc2cc(O)cc(O)c12 [Q3′S, quercetin-3′-sulfate]		
1600	4.05	3100	5.71	O=C(O)C1OC(Oc2c(-c3ccc(O)c(O)c3)oc3cc(O)cc(O)c3c2=O)C(O)C(O)C1O (centres unmarked) [Q3G, quercetin-3-glucuronide]		

Structure (SMILES)	concentration causing statistically significant (p < 0.01) inhibition, OATP1B1 (OATP1B1; 10 μM pyranine, 15 min) [nM]	IC50 (OATP1B1; [1]) [µM]	concentration causing statistically significant (p < 0.01) inhibition, OATP1B3 (OATP1B3; 20 μM pyranine, 30 min) [nM]	IC50 (OATP1B3; [2]) [µM]	IC50 (OATP1B1) [µM]	IC50 (OATP1B3) [µM]
COc1cc(-c2oc3cc(O)cc(O)c3c(=O)c2O)ccc1O [IR, isorhamnetin]	3100		3100		3.12	3.1
O=c1c(O)c(-c2ccc(O)c(O)c2)oc2cc(O)cc(O)c12 [Q, quercetin]	1300	1.55	2500	3.22		
